From US20250115665A1, “BISPECIFIC ANTIBODY AGAINST CD3 AND CD20 IN COMBINATION THERAPY FOR TREATING DIFFUSE LARGE B-CELL LYMPHOMA” (GENMAB A/S, priority 2022, published 2025)

What was measured:
T cells = assay: T-cell activation with immobilized anti-CD3 in the presence or absence of lenalidomide; format: cell-based; conditions: lenalidomide 5 or 50 μM, CD3 crosslinking by immobilized anti-CD3, 3 days; compared to no lenalidomide
Method: T cells were pre-incubated with assay medium or lenalidomide in the absence or presence of CD3 crosslinking by immobilized anti-CD3 for 3 days (as indicated on the x-axes), after which upregulation of CD69, CD25, PD-1 and LAMP-1 on CD4+ and CD8+ T cells was determined by flow cytometry. Data shown are geomean fluorescence intensities (FI) for four donors (each circle represents one condition for one donor). Pre-incubation conditions are shown on the x-axis.
(§1) Briefly, T cells were activated with immobilized anti-CD3 in the presence (5 or 50 μM) or absence of lenalidomide for 3 days. […] T cells that were activated in the presence or absence of lenalidomide were subsequently tested for their cytotoxic capacity in response to epcoritamab.

[1] = test system: highly refractory large B-cell lymphoma; conditions: monotherapy, n=157; cited from earlier work
[2] = test system: CD20-expressing Daudi cells; assay: DuoBody-CD3xCD20-induced T-cell-mediated cytotoxicity assay with lenalidomide pre-treated T cells; format: cell-based; conditions: T cells pre-treated with lenalidomide and anti-CD3; Daudi target cells, E:T ratio 2:1
Method: T cells were incubated with (5 or 50 μM) or without lenalidomide in the absence or presence of immobilized anti-CD3 for 3 days. […] Data shown are average percentages cytotoxicity±SD of duplicates, normalized to medium control (no antibody, no lenalidomide).
as §1

| Compound | T-cell activation (upregulation of CD69, CD25 on the T cell surface, release of granzyme B and IFNγ) (T cells) | complete response (CR) rate [1] [%] | median duration of response (DOR) [1] [months] | overall response rate (ORR) [1] [%] | safety profile [1] | cytotoxic activity at lower antibody concentrations [2] | maximum percent cytotoxicity [2] |
| --- | --- | --- | --- | --- | --- | --- | --- |
| Nc1cccc2c1CN(C1CCC(=O)NC1=O)C2=O (stereo not shown) [lenalidomide, 3-(4-Amino-1-oxo-1,3-dihydro-2H-isoindol-2-yl) piperidine-2,6-dione] | increased T-cell activation |  |  |  |  |  |  |
| epcoritamab: IgG1 bispecific CD3×CD20 antibody, heavy/light chains SEQ ID NOs: 24, 25 and 26, 27; CAS 2134641-34-0 |  | 39 | 12 | 63 | manageable safety profile | higher activity at lower epcoritamab concentrations | Higher maximum percent cytotoxicity |
